Laboratory results from patent US20070099863A1, “Compounds for the treatment of demyelinating and autoimmune diseases” (priority 2003, published 2007).
Where a name gives a salt, the structure may show the parent alone. Each block holds one molecule with its values, some of them ahead of it.

Legend:
[1] = test system: P2X receptors in oligodendrocytes; experiment: Whole-cell patch-clamp recordings in cultured oligodendrocytes; format: cell-based, rat; details: for induction of input current by agonist: agonist 100 μM; for EC50: cultured oligodendrocytes, whole-cell patch-clamp, read-out: EC50 of amplitude of currents generated by agonist
Description: (§1) The cell cultures were carried out from the optic nerve of the perinatal rat (P12) following established protocols, which were adapted and introduced into the laboratory according to a recent description (Matute et al, 1997, Proc. Natl. Acad. Sci. USA 94, 8830-8835).
The electrophysiological recordings were carried out in 2 to 5 day cultures, and according to the guidelines indicated in previous works (Patneau et al 1994, Neuron 12: 357-371). The cells were recorded in a chamber which allowed the composition of the extracellular medium to vary by means of a constant flow (0.5-1 mL/min). The recording electrodes were glass capillaries which contained specific solutions compatible with the cytoplasm ion concentrations. The study of the responses mediated by the purinergic receptors was carried out using the “whole-cell patch-clamp” technique, measuring the currents generated by the external application of selective agonists and antagonists of the aforementioned receptors.

[2] = test system: P2X receptors in oligodendrocytes; experiment: Cytosolic calcium levels (Fura-2) in oligodendrocyte cultures; format: cell-based, rat; details: for promotion of the increase of [Ca2+]i generated by ATP: propofol 60 μM
Description: as §1
The concentration of cytosol calcium was determined by the method of Grynkiewikcz et al (1985; J. Biol. Chem. 260, 3440-3450). The oligodendrocytes were loaded with […] of Fura-2/AM, and they were then washed and studied in a Zeiss inverted microscope equipped with a monochromator, 40× immersion objective, an Orca high resolution digital camera, and AquaCosmos software (Hamamatsu Photonics). The changes in cytosol calcium levels in response to agonists and antagonists, in the presence and absence of extracellular calcium, were studied. The calibration was performed at the end of the studies by means of the successive application of ionomycin and EGTA, and the calcium concentration was estimated using the measurement of the 340/380 nm ratio.

[3] = test system: oligodendrocytes; experiment: Oligodendroglial death in culture; format: cell-based, rat; details: for toxicity of purinergic agonists for oligodendrocytes: culture
Description: as §1, with “Death is calcium dependent, since its elimination from the culture media leads to it not being caused. […] The” for “The”

[4] = test system: optic nerve; experiment: Infusion of agonists over the optic nerve in vivo (osmotic pumps); parameters: species or system rabbit; details: infused 3 days by osmotic pumps, examined 7 days after start
Description: The experiments on the optic nerve were carried out in rabbits (New Zealand White) which, due to their size, enable better manipulation in experimental surgery. The procedure used was that described previously (Matute, 1998, Proc. Natl. Acad. Sci. 95, 10229-10234). The purinergic agonists were applied using osmotic micropumps which released small quantities of solute for a determined time. Later, the effect of this application on the nerve was evaluated by means of a panel of oligodendrocyte markers and their progenitors, myelin, axonal integrity, astrogliosis y microgliosis.
Next, the ATP-γ-S and BzATP agonists were infused over the optic nerve using osmotic pumps which released very small quantities of solute for 3 days. […] Also, this zone had intense gliosis, lack of myelin and axonal damage (FIG. 6).

[5] = test system: oligodendrocytes of isolated optic nerve; experiment: Isolated optic nerve perfusion, oligodendrocyte damage in situ; parameters: species or system rat
Description: Next, they were incubated with purinergic agonists and antagonists for different times. Later, the nerves were perfused for 1 to 24 hours with normal aCSF saturated with oxygen. After this time passed the damage was evaluated histologically as we have described in vivo (Matute, 1998, Proc. Natl. Acad. Sci. USA 95: 10229-10234), and the biochemical changes which are underlying to this damage were analysed.
To determine if ATP is toxic to the oligodendrocytes in a preparation of nerve tissue without dissociating, entire optic nerves isolated from adult rats were perfused with artificial cerebrospinal fluid with ATP (100 μM) for 3 h. […] The damaged cells are located in the longitudinal axis of the nerve and make up part of interfascicular oligodendrocyte rows.

[6] = biological target: T1, P2X1 (Homo sapiens, UniProt P51575); details: P2X1 subtype; read-out: IC50 in relation to P2X1; cited from earlier work
T1 sequence (P51575 1-399): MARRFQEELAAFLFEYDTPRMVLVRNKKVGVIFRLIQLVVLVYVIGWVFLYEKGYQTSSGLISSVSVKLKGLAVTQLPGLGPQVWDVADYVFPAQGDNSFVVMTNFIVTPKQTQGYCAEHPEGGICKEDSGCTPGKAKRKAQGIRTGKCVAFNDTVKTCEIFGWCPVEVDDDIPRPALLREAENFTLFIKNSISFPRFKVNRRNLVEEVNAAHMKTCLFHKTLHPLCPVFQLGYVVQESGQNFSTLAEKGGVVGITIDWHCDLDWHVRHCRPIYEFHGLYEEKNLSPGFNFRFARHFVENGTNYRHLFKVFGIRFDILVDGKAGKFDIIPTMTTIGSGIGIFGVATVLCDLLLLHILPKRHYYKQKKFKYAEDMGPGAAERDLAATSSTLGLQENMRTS

[7] = biological target: T2, P2X3 (Homo sapiens, UniProt P56373); details: P2X3 subtype; read-out: IC50 in relation to P2X3; cited from earlier work
T2 sequence (P56373 1-397): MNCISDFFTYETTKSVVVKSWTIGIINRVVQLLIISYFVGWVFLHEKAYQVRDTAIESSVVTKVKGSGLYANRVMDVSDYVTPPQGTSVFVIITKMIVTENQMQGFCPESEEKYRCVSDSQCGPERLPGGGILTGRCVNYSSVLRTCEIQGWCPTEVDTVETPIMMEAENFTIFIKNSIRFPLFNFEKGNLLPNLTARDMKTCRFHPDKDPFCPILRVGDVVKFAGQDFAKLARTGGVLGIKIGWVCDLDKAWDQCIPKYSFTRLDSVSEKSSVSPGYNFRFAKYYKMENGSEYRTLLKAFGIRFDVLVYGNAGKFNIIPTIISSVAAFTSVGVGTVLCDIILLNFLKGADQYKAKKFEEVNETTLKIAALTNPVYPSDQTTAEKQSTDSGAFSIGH

[8] = biological target: T3, P2X4 (Homo sapiens, UniProt Q99571); details: P2X4 subtype; read-out: IC50 in relation to P2X4; cited from earlier work
T3 sequence (Q99571 1-388): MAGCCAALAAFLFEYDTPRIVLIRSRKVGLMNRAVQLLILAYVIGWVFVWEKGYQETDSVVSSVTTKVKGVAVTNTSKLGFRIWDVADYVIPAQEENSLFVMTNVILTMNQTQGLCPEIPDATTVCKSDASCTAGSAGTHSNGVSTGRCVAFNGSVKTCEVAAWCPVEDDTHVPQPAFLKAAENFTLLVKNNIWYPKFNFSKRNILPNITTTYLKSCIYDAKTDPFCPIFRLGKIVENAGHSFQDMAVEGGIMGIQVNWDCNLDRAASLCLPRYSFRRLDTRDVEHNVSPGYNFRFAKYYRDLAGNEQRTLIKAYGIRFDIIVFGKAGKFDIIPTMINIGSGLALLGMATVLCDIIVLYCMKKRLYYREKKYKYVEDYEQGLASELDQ

[9] = test system: EAE in Lewis rats; experiment: Acute EAE induced with basic myelin protein; format: in vivo, rat; details: 7 to 14 days post-injection
[10] = test system: EAE in DA rats; experiment: Chronic-recurrent-remittent EAE model; format: in vivo, rat; details: o-ATP 2.5 mg/kg every 12 h, from maximum intensity of symptoms
Description: Later, the efficacy of o-ATP in improving the symptoms of EAE was evaluated in a chronic-recurrent-remittent model. For this, DA rats were immunised with syngeneic spinal cord, the appearance of severe neurological deficits being observed 7-9 days post-injection, and which reached their first peak around 11 days.

[11] = test system: P2X7 receptors; experiment: P2X7 receptor levels in lumbar-sacral spinal cord of EAE animals (Western blot); format: in vivo, rat; details: EAE animals treated with o-ATP; untreated EAE reduced by half

EC50 [1]: 0.52 mM
Molecule: 2′,3′-O-(4-benzoyl-4-benzoyl) [BzATP]
induction of input current by agonist [1]: induced similar responses | entrance of Ca2+ into oligodendrocytes ([2]; Bz-ATP 0.01-1 mM): activates the entrance of Ca^2+ into oligodendrocytes in a dose dependent way | toxicity of purinergic agonists for oligodendrocytes [3]: toxicity similar to ATP | histological examination of optic nerve after agonist infusion [4]: tissue damage

Molecule: Nc1ncnc2c1ncn2[C@@H]1O[C@H](COP(=O)(O)OP(=O)(O)OP(O)(O)=S)[C@@H](O)[C@H]1O [ATP-γ-S]
toxicity of purinergic agonists for oligodendrocytes [3]: toxic | histological examination of optic nerve after agonist infusion [4]: tissue damage

Molecule: Nc1ncnc2c1ncn2[C@@H]1O[C@H](COP(=O)(O)OP(=O)(O)OP(=O)(O)O)[C@@H](O)[C@H]1O [ATP]
oligodendrocytes showing non-desensitising input current ([1]; ATP 1 mM, n=47): 77.3%±7.9 | EC50 [1]: 8.77 mM | cytosol [Ca2+]i after agonist ([2]; ATP 10 μM, basal 250±65 nM): 1200 ± 468 nM | death of oligodendrocytes ([3]; ATP 0.01-1 mM, all concentrations tested): 15-27% | increase in number of cells with nuclear condensation vs control nerves ([5]; ATP 100 μM for 3 h, isolated adult rat optic nerve): > 3 times

Molecule: [Cu+2] [Cu^2+]
effect on ATP currents ([1]; Cu2+ 1 mM): reduces ATP currents

Molecule: O=c1[nH]cnc2c1ncn2C1OC(COP(=O)(O)OP(=O)(O)OP(=O)(O)OP(=O)(O)OP(=O)(O)OCC2OC(n3cnc4c(=O)[nH]cnc43)C(O)C2O)C(O)C1O (centres unmarked) [Ip5I, pentapotassium salt of P^1,P^5-Diinosine-5-pentaphosphate]
IC50 [6]: 3 nM | IC50 [7]: 3 µM

Molecule: O=C(Nc1cccc(C(=O)Nc2ccc(S(=O)(=O)O)c3cc(S(=O)(=O)O)cc(S(=O)(=O)O)c23)c1)Nc1cccc(C(=O)Nc2ccc(S(=O)(=O)O)c3cc(S(=O)(=O)O)cc(S(=O)(=O)O)c23)c1 [NF023, hexasodium salt of 8,8′-[carbonylbis[imino-3,1-phenylenecarbonylimino]bis-1,3,5-naphthalenetrisulfonic acid]]
IC50 [7]: 29 µM

Molecule: O=C(Nc1ccc(C(=O)Nc2ccc(C(=O)Nc3ccc(S(=O)(=O)O)c4cc(S(=O)(=O)O)cc(S(=O)(=O)O)c34)cc2)cc1)Nc1ccc(C(=O)Nc2ccc(C(=O)Nc3ccc(S(=O)(=O)O)c4cc(S(=O)(=O)O)cc(S(=O)(=O)O)c34)cc2)cc1 [NF279]
IC50 [6]: 20 nM | IC50 [8]: > 30 µM

Molecule: Cc1nc(N=Nc2ccc(S(=O)(=O)O)cc2S(=O)(=O)O)c(COP(=O)(O)O)c(C=O)c1O [PPADS, tetrasodium salt of pyridoxalphosphate-6-azophenyl-2′,4′-disulfonic acid]
effect on currents induced by ATP ([1]; PPADS 100 μM): completely blocked | effect on Ca2+ entrance induced by Bz-ATP ([2]; PPADS): blocked | effect on [Ca2+]i response to ATP ([2]; PPADS 50 μM, ATP 10 μM): repressed | effect on ATP-induced oligodendrocyte death ([3]; PPADS 50 μM): inhibited | effect on ATP-induced oligodendrocyte death in isolated optic nerve ([5]; PPADS 10 μM with ATP): prevents the death of the oligodendrocytes | effect on symptoms and course of acute EAE ([9]; PPADS 30 mg/kg two times per day): did not improve the symptoms or the course of the disease

Molecule: Nc1ncnc2c1ncn2[C@@H](C=O)O[C@@H](C=O)COP(=O)(O)OP(=O)(O)OP(=O)(O)O [o-ATP, sodium salt of Adenosine 5-triphosphate, oxidised with periodate]
effect on ATP currents ([1]; o-ATP, concentration not given): partially blocks | reduction of the increase in [Ca2+]i induced by Bz-ATP ([2]; o-ATP 1 mM): 63±8 | effect on oligodendroglial death due to ATP ([3]; o-ATP (FIG. 4)): can be prevented | effect on symptoms of acute EAE ([9]; o-ATP 1 and 5 mg/kg every 12 h): reduced or prevented the appearance of symptoms | effect on symptoms of chronic-recurrent-remittent EAE [10]: reduced the symptoms and also eliminated those common to the chronic phase | levels of P2X7 receptors in lumbar-sacral spinal cord [11]: returned to those of the controls

Molecule: CC(C)c1cccc(C(C)C)c1O [propofol]
effect on ATP currents ([1]; propofol 60 μM): does not alter these currents | promotion of the increase of [Ca2+]i generated by ATP ([2]; 0.1 mM ATP): 60%±22 | promotion of the increase of [Ca2+]i generated by ATP ([2]; 1 mM ATP): 77%±34

Molecule: Nc1ncnc2c1ncn2[C@@H]1O[C@H](COP(=O)(O)CP(=O)(O)OP(=O)(O)O)[C@@H](O)[C@H]1O [α,β-Me-ATP, α,β-methylene-ATP]
induction of input current by agonist [1]: did not generate currents | toxicity of purinergic agonists for oligodendrocytes [3]: toxic
